Test results from patent publication US20240299560A1, “DEOXYCHOLIC ACID-PEPTIDE CONJUGATE HAVING ANTI-OBESITY ACTIVITY AND USE THEREOF” (CAREGEN CO, LTD., priority 2020, published 2024).
Where a SMILES comes first, the peptide text is derived from it. [ ]: non-standard residue; d: D form. The star is where a group is joined. ξ: configuration not given here. Deoxycholoyl = C[C@H](CCC(=O)*)[C@H]1CC[C@H]2[C@@H]3CC[C@@H]4C[C@H](O)CC[C@]4(C)[C@H]3C[C@H](O)[C@]12C; ξF = NC(Cc1ccccc1)C(=O)O; ξL = CC(C)CC(N)C(=O)O; ξK = NCCCCC(N)C(=O)O; ξNva = CCCC(N)C(=O)O

How the values were obtained:
white adipose tissue = assay: Glycerol release (lipolysis) from cultured adipose tissue; format: cell-based, mice; conditions: for glycerol release amount: 1 μM, adipose tissue
Procedure: Neutral fat stored in adipose tissue was decomposed into fatty acids and glycerol for energy production or cell signaling. Therefore, the lipolysis effect of neutral fat accumulated in the adipose tissue was confirmed by measuring the release amount of free glycerol.
Specifically, in female mice fed with a high-fat diet (Rodent Diet with 60% Kcal Fat, Research Diets, USA), a fat pad, which was white adipose tissue, was isolated, and each 400 mg of adipose tissue per well was placed in a 12-well plate, and then cultured for 48 hours in a culture medium (DMEM media serum free) to be stabilized. During the culture, the peptide conjugate was treated at concentrations of 1 μM, 10 μM, and 100 μM, and as a positive control group, 20 nM of TNFα was treated and cultured for 48 hours to obtain a supernatant, and the amount of glycerol was measured using a glycerol colorimetric assay kit (Cayman chemical, USA).
(§1) In order to compare the lipolysis effects in the case of treating the deoxycholic acid-peptide conjugate and the case of treating the deoxycholic acid or the peptide of SEQ ID NO: 1 alone, the amount of glycerol released from the adipose tissue was measured in the same manner as in Experimental Example 3-1. A group treated with TNF-α was used as a positive control group.

[1] = Solubility in water, visual observation; format: physicochemical; conditions: 1 mg in 90 μL distilled water
Procedure: Solubilities of the deoxycholic acid-peptide conjugate prepared in Example 2 and deoxycholic acid were visually observed and compared.
Specifically, 90 μL of distilled water was added to an E. tube containing 1 mg each of the deoxycholic acid-peptide conjugate and the deoxycholic acid, and dissolution was confirmed.

3T3-L1 cells = assay: Oil red O staining of fat accumulation in differentiated adipocytes; format: cell-based; conditions: 1 μM, 3T3-L1 adipocytes; for lipid accumulation amount: oil red O absorbance 510 nm
Procedure: 3T3-L1 cells as preadipocytes were purchased from the American Type Culture Collection (ATCC) and used in an experiment. 3T3-L1 was a cell line widely used to study the metabolic process of adipocytes, and as the differentiation of the cells was activated, fat accumulation in adipocytes was activated to induce obesity.
(§2) The preadipocytes 3T3-L1 were cultured in a DMEM containing 2% fetal bovine serum (FBS) under conditions of 37° C. and 5% CO2. The preadipocytes 3T3-L1 were dispensed in a 12-well plate at a density of 1×10^5 cells/well, and then further maintained for 2 days at a 100% confluency point. The preadipocytes were cultured for 2 days in a DMEM medium (hereinafter referred to as a ‘differentiation medium’) containing a differentiation ingredient (including 10 μg/ml insulin, 0.1 μM dexamethasone and 0.5 mM IBMX) and 10% FBS to induce the differentiation into adipocytes. After 48 hours of culture, the preadipocytes were cultured for 2 days in 10% FBS DMEM (hereinafter referred to as a ‘culture medium’) containing 1 μg/ml insulin. Thereafter, the culture medium was replaced with a 10% FBS DMEM culture medium every 2 days. During the induction of adipocytes differentiation, depending on a purpose of the experiment, a deoxycholic acid-peptide conjugate was treated or not in each culture medium at a concentration of 1 μM or 10 μM, and the differentiation degree of adipocytes was observed on day 7, when the differentiation was completed.
Specifically, the degree of differentiation of adipocytes induced in Preparation Example 1 was first confirmed under a microscope through oil red O staining, and for the staining degree of adipocytes, the degree of fat accumulated in the cells was calculated by measuring absorbance with a spectrophotometer at a wavelength of 510 nm. A group treated with a β3 adrenergic receptor agonist CL316243 or TNF-α was used as a positive control group.
as §1, with “fat accumulation inhibitory” for “lipolysis”, “degree” for “amount”, “differentiation of adipocytes and” for “glycerol released from”, “degree of lipid accumulation were” for “adipose tissue was”, “1-1.” for “3-1.”

HSL and PLIN genes = assay: RT-PCR of lipolysis genes in adipose tissue; format: cell-based, BL/6 mice; conditions: 1 and 10 μM, 72 hours
Procedure: (§3) Adipose tissue was collected from the abdomen of 9-week-old BL/6 mice, placed in a 100 mm×15 mm culture dish, and then cultured in a culture medium overnight. The adipose tissue was divided to have the same weight, transferred to a 24-well plate, and then used in the following Experimental Examples.
(§4) The adipocytes obtained in Preparation Example 1 or the adipose tissue obtained in Preparation Example 2 were treated with the deoxycholic acid-peptide conjugate of the present invention, cultured, and then recovered, and RNA was extracted with Trizol (Thermo Fisher Scientific, USA). From the extracted RNA, complementary DNA to RNA was obtained using TOPScript™ RT DryMIX (enzynomics, Korea) and then polymerase chain reaction (PCR) was performed using TOPsimple™ DryMIX-nTaq (enzynomics, Korea). Thereafter, PCR products were loaded on a 1.5% agarose gel to compare the mRNA expression levels of the growth factors.
Specifically, the adipose tissue obtained in Preparation Example 2 was treated with 1 μM and 10 μM of the deoxycholic acid-peptide conjugate and 1 μM of CL316243 (Sigma, USA) as a positive control group and cultured for 72 hours. […]

adipose tissue = assay: H&E staining, size of adipocytes in adipose tissue; format: cell-based, BL/6 mice; conditions: vs control group
Procedure: as §3
In order to confirm the lipolysis effect in adipose tissue by the deoxycholic acid-peptide conjugate, H&E staining was performed on the adipose tissue obtained in Preparation Example 2 to confirm the sizes of adipocytes.
Specifically, the adipose tissue was cut, attached to a paraffin slide, and dried at 50° C. The slide attached with the dried adipose tissue was placed in Xylene 1, 2, and 3 for 5 minutes each, and the paraffin was removed. Thereafter, the slide was put into 100% ethanol for 2 minutes, and then sequentially put into 90%, 80%, and 70% ethanol to be re-hydrated. The re-hydrated slide was stained in a hematoxylin solution, washed, and then stained with Eosin Y. Thereafter, the slide was sequentially put into 90%, 80%, and 70% ethanol, and then put into Xylene 3, 2, and 1, and then mounted with a xylene-based mounting medium to prevent air bubbles from entering the tissue, and then dried. Then, the dried slide was observed under an optical microscope.

[2] = test system: adiponectin and leptin genes; assay: RT-PCR of fat metabolism genes in adipocytes; format: cell-based; conditions: 1 and 10 μM, 1, 3, 6 hours
Procedure: as §2, with “completed. […]” for “completed.”

[3] = test system: ACCα, FAS and PPARγ genes; assay: RT-PCR of adipogenesis genes in adipose tissue; format: cell-based, BL/6 mice; conditions: 1 and 10 μM, 72 hours
Procedure: as §3, §4
(§5) Specifically, the adipose tissue obtained in Preparation Example 2 was treated with 1 μM and 10 μM of the deoxycholic acid-peptide conjugate and 1 μM of CL316,243 (Sigma, USA) as a positive control group and further cultured for 72 hours. After the cells were recovered and the polymerase chain reaction was performed by the method described in Experimental Example 4-1, the expression products were loaded on an agarose gel to confirm the mRNA expression levels of genes related to adipogenesis.

[4] = test system: IL-15 gene in C2C12 cells; assay: RT-PCR of IL-15 gene in muscle cells; format: cell-based, mouse; conditions: 1 and 10 μM; 6 hours; C2C12 myotubes
Procedure: as §4
Specifically, C2C12 cells, which were mouse myoblasts, were inoculated into a 6-well plate at a density of 2×10^5 cells/well, and then cultured in a DMEM (10% FBS) medium for 3 days. When the cells had grown to about 70 to 80% of the plate, the medium was replaced with a differentiation medium (DMEM, 5% horse serum) and then cultured for 3 days. Thereafter, the medium was replaced with the differentiation medium (DMEM, 2% horse serum) and cultured for 4 days to induce differentiation from myoblasts to myotubes. Then, the medium was replaced with a serum-free medium and cultured for 2 hours, and treated with 1 μM and 10 μM of the deoxycholic acid-peptide conjugate for 6 hours and cultured in an environment of 37° C. and 5% CO2. […]

AMPKa1, HSL, PGC1a genes = assay: RT-PCR of lipolysis-related genes in adipocytes; format: cell-based; conditions: 1 and 10 μM; 24 hours; differentiated adipocytes
Procedure: as §2, §4
Specifically, the differentiated adipocytes obtained in Preparation Example 1 were treated with 1 μM and 10 μM of the deoxycholic acid-peptide conjugate, and then cultured for 24 hours. […]

[5] = test system: UCP1, PRDM and Cidea genes; assay: RT-PCR of thermogenesis-related genes of brown adipocytes in adipose tissue; format: cell-based, BL/6 mice; conditions: 1 and 10 μM, 72 hours
Procedure: as §3, §4, §5

For `C[C@H](CCC(=O)O)[C@H]1CC[C@H]2[C@@H]3CC[C@@H]4C[C@H](O)CC[C@]4(C)[C@H]3C[C@H](O)[C@]12C` [deoxycholic acid, 3,12-dihydroxycholan-24-oic acid], the glycerol release amount (white adipose tissue) was 116%, the “solubility in water (dissolution, visual)” value [1] was “hardly dissolved” and the lipid accumulation amount (3T3-L1 cells) was 93%.
For `CCCC(NC(=O)C(CC(C)C)NC(=O)C(Cc1ccccc1)NC(=O)C(CCCCN)NC(=O)CC[C@@H](C)[C@H]1CC[C@H]2[C@@H]3CC[C@@H]4C[C@H](O)CC[C@]4(C)[C@H]3C[C@H](O)[C@]12C)C(=O)NC(CCCCN)C(=O)O` (stereo partly shown) [deoxycholic acid-peptide conjugate] (Deoxycholoyl-[ξK][ξF][ξL][ξNva][ξK]-OH), the “HSL mRNA expression” value (HSL and PLIN genes) was “increased in a concentration dependent manner”, the “PLIN mRNA expression” value (HSL and PLIN genes) was “increased in a concentration dependent manner” and the glycerol release amount (white adipose tissue) was 175%. For the same compound, the “amount of glycerol released” value (white adipose tissue; 1, 10, 100 μM, 48 hours, adipose tissue of high-fat diet mice, vs control group) was “increased in a concentration-dependent manner”, the “solubility in water (dissolution, visual)” value [1] was “completely dissolved” and the sizes of adipocytes (adipose tissue) was “decreased”. The “adiponectin mRNA expression” value [2] was “increased”, the “leptin mRNA expression” value [2] was “increased” and the “ACCα mRNA expression” value [3] was “decreased”. For the same compound, the “FAS mRNA expression” value [3] was “decreased”, the “PPARγ mRNA expression” value [3] was “decreased” and the “IL-15 mRNA expression” value [4] was “increased”. The “AMPKa1 mRNA expression” value (AMPKa1, HSL, PGC1a genes) was “increased”, the “HSL mRNA expression” value (AMPKa1, HSL, PGC1a genes) was “increased” and the “PGC1a mRNA expression” value (AMPKa1, HSL, PGC1a genes) was “increased”. The “fat staining in adipocytes (oil red O)” value (3T3-L1 cells; day 7, positive control CL316243 or TNF-α) was “reduced at the same level as the positive control group”, the lipid accumulation amount (3T3-L1 cells) was 78% and the “Cidea mRNA expression” value [5] was “increased”. The “PRDM mRNA expression” value [5] was “increased” and the “UCP1 mRNA expression” value [5] was “increased”.
With “Lys Phe Leu Ile Lys (KFLIK) [peptide of SEQ ID NO: 1]” the glycerol release amount (white adipose tissue) was 106% and the lipid accumulation amount (3T3-L1 cells) was 89%.
